Test results published in US7166688B1, “Chelation compositions” (LidoChem, Inc., priority 2000, dated 2007).

What was measured:
[1] = Zinc chelation, clear solution / precipitate test; format: physicochemical
Procedure: In 25 ml of water 1 gram of zinc sulfate was added. Once the zinc sulfate was in solution, 30 ml of the N,N-diethanolsuccinamide amino ethanol solution produced in Example 17 was added and the pH of the blend was adjusted to 9.5. Then 1 gram of potassium phosphate was added tho the mixture.
In a separate flask 25 ml of water, 1 gram of zinc sulfate and 1 gram of potassium phosphate were blended together. Immediately a white precipitate formed.
(§1) In 400 ml of water, 20 ml of a 17% zinc nitrate solution were added and 60 ml of the product from example 28 were added. With mechanical stirring, 40 grams of monopotassium phosphate were added to the mix. The pH of the solution was then adjusted to 2 with HCl. The pH of the solution was then gradually raised with the addition of Monoethanolamine to a pH of 9.
A nine percent chelated zinc solution was prepared by blending 50 ml of water with 22.4 grams zinc oxide. Concentrated HCl was added until the solution was clear. Once in solution, 125 grams of the compound produced in Example 10 was added. […] This chelated zinc solution is suitable for blending with phosphorus fertilizers 2-ethanolaminesuccinic-N-ethanolsuccinicamide (tri potassium salt) has the following formula: […]
Ten ml of 17% zinc solution were added to a liter of water. Later 20 grams of potassium phosphate were added and dissolved. Zinc phosphate formed a precipitate. Phosphorous acid was then added to lower the pH and clear the solution. Once clear 30 ml of the solution prepared in example 35 was added. This acidic solution, which was acidic, then remained undisturbed for a day, after which the pH was adjusted to 10 with the addition of MEA.

[2] = Iron chelation, clear solution / precipitate test; format: physicochemical
Procedure: A five percent chelated iron solution was prepared by blending 18 ml of water with 100 grams of a (10% Fe) ferric nitrate solution. Once in solution, 82 grams of the compound produced in Example 10 was added.
In 25 ml of water, 20 ml of a 1.8M ferric nitrate was added. Once in solution, 30 ml of the diethanolsuccinamide amino ethanol solution produced in Example 17 was added and the pH of the blend was adjusted to 9.2. Then 1 gram of potassium phosphate was added to the mixture.
Five drops of 1.8 M ferric nitrate were added to one liter of water and mechanically blended. Then 10 grams of potassium phosphate were added to the solution and allowed to form insoluble potassium salts.
In 400 ml of water, 20 ml of a 10% ferric nitrate solution were added, and 20 ml of the product from example 25 were added. With mechanical stirring, 40 grams of monopotassium phosphate was added the mix. The pH of the solution was then adjusted to 2 with HCl. The pH of the solution was then gradually raised with the addition of base to a pH of 10.
In 400 ml of water, 10 ml of 1.8 M ferric nitrate solution were added and 20 ml of the product from example 28 were added. With mechanical stirring, 20 grams of monopotassium phosphate was added to the mix. The pH of the solution was then adjusted to 2 with HCL. The pH of the solution was then gradually raised with the addition of Monoethanolamine to a pH of 10.
To a beaker containing one liter of water, 20 grams of potassium phosphate were added to form a clear solution.
Thirty grams of 1.8 M ferric nitrate were added to 100 ml of water. The pH of the solution was lowered to 4 with phosphorous acid, and then 5 grams of Potassium phosphate were then added to the blend. Later 30 ml of the solution produced in example 29 was added.
One hundred ml of the solution prepared in Example 41 was added to 500 ml of water and blended. 10 ml of 1.8-M ferric nitrate was then added to the mixture. […] The potassium salt of maleic acid was tested as a chelating agent.
In a separate flask 20 grams of maleic anhydride were blended in 500 ml of water. Potassium hydroxide was then added to the blend to raise the pH to 10. Later ten ml of 1.8M ferric nitrate was added to the mix and 10 grams of potassium phosphate was also blended in. […] The contents of the flask were then blended again while MEA was added to the mix.

[3] = Manganese chelation, clear solution / precipitate test; format: physicochemical
Procedure: In 25 ml of water 10 ml of a manganese nitrate solution was added. Once the manganese nitrate was in solution, 30 ml of the N,N-diethanolsuccinamide amino ethanol solution produced in Example 17 was added to the mixture and the pH of the blend was adjusted to 6. Then 1 gram of potassium phosphate was added to the mixture.
A five percent chelated manganese solution was prepared by blending 18 ml of water with 58 grams of a (17% Mn) manganese nitrate solution. Once the manganese nitrate was in solution, 82 grams of the compound produced in Example 10 was added. […] This chelated manganese solution is suitable for blending with phosphorus fertilizers.

[4] = Copper chelation, clear solution / precipitate test; format: physicochemical
Procedure: A five percent chelated copper solution was prepared by blending 19 grams of basic copper sulfate in 100 ml of water. Concentrated HCl was added to solubilize the copper. Once in solution, 71 grams of the compound produced in Example 10 was added. […] This chelated copper solution is suitable for blending with phosphorus fertilizers.
In 250 ml of water 1 gram of copper sulfate was added and mechanically stirred. To this solution, 10 ml of the diethanolsuccinamide-amino ethanol solution produced in Example 17 was added. The pH of the blend was adjusted to 8.4 and 1 gram of potassium phosphate was added the mixture.
In another flask, 1 gram of copper sulfate was added to 250 ml of water and mechanically blended. Then, 1 gram of potassium phosphate was added to the blend. The pH of the solution was adjusted with potassium hydroxide. Immediately a powder solid was formed and precipitated. The hydroxide and phosphate salts of copper were formed.
as §1, with “water, 1 gram” for “water, 20 ml”, “of copper sulfate was” for “of a 17% zinc nitrate solution were”, “and 10” for “and 60”, “stirring, 20” for “stirring, 40”
Two grams of basic copper sulfate were added to 200 ml of water. […]

[5] = test system: Clover; test: Foliar applied IDS chelated minerals, tissue analysis, clover; format: in vivo
Procedure: (§2) An experimental trial was completed testing the efficacy of the Iminodisuccinates (IDS) of this invention on five different crops. Below is the protocol and tissue analysis for both soil and foliar applied iminodisuccinate chelated mineral salts.
(§3) A stock solution for foliar application was prepared by blending 6000 ml of water with T-DAT 09, (Harcross Chemical Company, USA) a surfactant, added to spray mix at 2 drops per liter. • 1). 5 ml of 9% zinc was added to 1 liter of stock solution. • 2). 5 ml of 5% copper was added to 1 liter of stock solution. • 3). 5 ml of 5% manganese was added to 1 liter of stock solution. • 4). 5 ml of 5% Iron was added to 1 liter of stock solution. • 5). 4 ml of 9% zinc, 1 ml of 5% copper, 1 ml of 5% manganese, and 1 ml of 5% iron was added to 1 liter of stock solution. • 6). Stock solution without further addition.
(§4) All plants were sprayed until wet. Harvested material was placed in an oven for one day and sent to the lab for tissue analysis. Harvesting occurred thirty days after planting and some plants had not grown enough to get complete lab results reported. The harvested corn plants were cut at the whirl to insure only new leaves would be tested. The soybeans were clipped above the cotyledon. The alfalfa and clover were removed from the soil and the roots were removed. The wheat was cut at the tillering node.

[6] = test system: Wheat; test: Foliar applied IDS chelated minerals, tissue analysis, wheat; format: in vivo
Procedure: as §2, §3, §4

[7] = test system: Wheat; test: Soil applied IDS chelated minerals with 10-34-0, tissue analysis, wheat; format: in vivo
Procedure: as §2
(§5) A). The control pots were watered without any further treatments.
(§6) B). An ammonium polyphosphate stock solution was prepared by adding 50 ml of the 10-34-0 to 4000 ml of water. Treated plants received 100 ml of the stock solution.
(§7) (C). The Zinc stock solution was prepared by blending 10 ml of IDS chelated 9% Zinc to a blend of 50 ml of 10-34-0 with 4000 ml of water. Treated plants received 100 ml of the zinc stock solution.
(§8) (D). The mixture of IDS chelated micronutrients was prepared by adding 4 ml of 9% Zinc, 1 ml of 5% Copper, 1 ml of 5% manganese, and 1 ml of 5% Iron. This mixture was then blended with 4000 ml of water and 50 ml of 10-34-0.
as §4

[8] = test system: Clover; test: Soil applied IDS chelated minerals with 10-34-0, tissue analysis, clover; format: in vivo
Procedure: as §2, §5, §6, §7, §8, §4

[9] = test system: Soybean; test: Soil applied IDS chelated minerals with 10-34-0, tissue analysis, soybeans; format: in vivo
Procedure: as §2, §5, §6, §7, §8, §4

[10] = test system: Soybean; test: Foliar applied IDS chelated minerals, tissue analysis, soybeans; format: in vivo
Procedure: as §2, §3, §4

[11] = test system: Corn; test: Foliar applied IDS chelated minerals, tissue analysis, corn; format: in vivo
Procedure: as §2, §3, §4

[12] = test system: Corn; test: Soil applied IDS chelated minerals with 10-34-0, tissue analysis, corn; format: in vivo
Procedure: as §2, §5, §6, §7, §8, §4

[13] = Calcium chelation, clear solution / precipitate test; format: physicochemical
Procedure: In a preliminary study, 2 grams of calcium chloride dihydrate were added to 200 ml of water and mechanically stirred. Then 20 ml of the diethanolsuccinamide amino ethanol solution produced in example 17 was added to the blend.
In another flask 2 grams of calcium chloride dihydrate were added to 200 ml of water and the pH was adjusted to 9. Almost immediately calcium hydroxide began to precipitate.

O=C([O-])CC(C(=O)[O-])N(CCO)C(CC(=O)[O-])C(=O)[O-].[K+].[K+].[K+].[K+] (stereo not shown) [Example 35, N,N-disuccinic-amino-ethanol tetra potassium salt]
appearance of solution / precipitates ([1]; 10 ml 17% zinc solution and 20 grams potassium phosphate in a liter of water, phosphorous acid, 30 ml solution, after a day pH 10 with MEA): remained clear, free of precipitates, and colorless | redissolution of precipitated ferric phosphate ([2]; 20 grams potassium phosphate and 10 grams 1.8 M ferric solution in one liter water, 2.4 grams of the 0.75 M solution added): a clear yellow solution was produced inmediately

2-ethanolaminesuccinic-N-ethanolsuccinicamide [Example 10]
appearance of finished solution / precipitates ([3]; five percent chelated manganese solution: 18 ml water, 58 grams (17% Mn) manganese nitrate solution, 82 grams compound, pH of 5): clear and free of precipitates | appearance of finished solution / precipitates ([1]; nine percent chelated zinc solution: 22.4 grams zinc oxide in 50 ml water, HCl, 125 grams compound, pH of 5): clear and free of precipitates | appearance of finished solution / precipitates ([2]; five percent chelated iron solution: 18 ml water, 100 grams (10% Fe) ferric nitrate solution, 82 grams compound, pH of 5): clear and free of precipitates | appearance of finished solution / precipitates ([4]; five percent chelated copper solution: 19 grams basic copper sulfate in 100 ml water, HCl, 71 grams compound, pH of 5): free of precipitates

ZINC
zinc in plant tissue, TREATED ([5]; harvested 30 days after planting, control 56.7): 1264 parts per million | zinc in plant tissue, CHANGE ([5]; treated minus control 56.7): 1207.3 parts per million | zinc in plant tissue, TREATED ([6]; harvested 30 days after planting, control 44.3): 563 parts per million | zinc in plant tissue, CHANGE ([6]; treated minus control 44.3): 518.7 parts per million | zinc in plant tissue, TREATED ([7]; soil applied with 10-34-0, harvested 30 days after planting, control 39): 93.1 | zinc in plant tissue, CHANGE ([7]; soil applied, treated minus control 39): 54.1 | zinc in plant tissue, % change ([7]; soil applied, versus control 39): 139% | zinc in plant tissue, TREATED ([8]; soil applied with 10-34-0, harvested 30 days after planting, control 53.4): 231 | zinc in plant tissue, CHANGE ([8]; soil applied, treated minus control 53.4): 177.6 | zinc in plant tissue, % change ([8]; soil applied, versus control 53.4): 333% | zinc in plant tissue, TREATED ([9]; soil applied with 10-34-0, harvested 30 days after planting, control 19.4): 136 | zinc in plant tissue, CHANGE ([9]; soil applied, treated minus control 19.4): 116.6 | zinc in plant tissue, % ([9]; soil applied, versus control 19.4): 601% | zinc in plant tissue, TREATED ([10]; harvested 30 days after planting, control 63.8): 1000 parts per million | zinc in plant tissue, CHANGE ([10]; treated minus control 63.8): 936.2 parts per million | zinc in plant tissue, % change ([10]; versus control 63.8): 1467% | zinc in plant tissue, TREATED ([11]; harvested 30 days after planting, control 15.6): 792 parts per million | zinc in plant tissue, CHANGE ([11]; treated minus control 15.6): 776.4 parts per million | zinc in plant tissue, % change ([11]; versus control 15.6): 4977% | zinc in plant tissue, TREATED ([12]; soil applied with 10-34-0, harvested 30 days after planting, control 24): 69.6 | zinc in plant tissue, CHANGE ([12]; soil applied, treated minus control 24): 45.6 | zinc in plant tissue, % ([12]; soil applied, versus control 24): 190%

O=C(CC(C(=O)[O-])N(CCO)C(CC(=O)NCCO)C(=O)[O-])NCCO.[K+].[K+] (stereo not shown) [Example 17, diethanolsuccinicamide-amino ethanol]
appearance of solution / precipitates ([13]; 2 grams calcium chloride dihydrate in 200 ml water, 20 ml solution, pH 9): a clear solution free of precipitates | calcium phosphate precipitate formation ([13]; same solution lowered to a pH of 5.5, phosphate salts added): without calcium phosphate precipitate formation | appearance of blend / precipitates ([3]; 10 ml manganese nitrate solution in 25 ml water, 30 ml solution, pH 6, 1 gram potassium phosphate): clear, amber in color, and free of precipitates | appearance of blend / precipitates ([1]; 1 gram zinc sulfate in 25 ml water, 30 ml solution, pH 9.5, 1 gram potassium phosphate): clear, yellow, and free of precipitates | appearance of blend / precipitates ([2]; 20 ml 1.8M ferric nitrate in 25 ml water, 30 ml solution, pH 9.2, 1 gram potassium phosphate): clear, dark ruby red and free of precipitates | appearance of blend / precipitates ([4]; 1 gram copper sulfate in 250 ml water, 10 ml solution, pH 8.4, 1 gram potassium phosphate): clear, dark blue and free of precipitates
